Reference: US7307063B2, “Melanocortin metallopeptides for treatment of sexual dysfunction” (Palatin Technologies, Inc., priority 2001, dated 2007)
Values joined by “and” are separate entries in the source; they are usually repeats but may differ in a detail not shown here. Equal values may be shown once. Non-standard residues stand in square brackets, D forms with d. No end group written: not given here. *: point of attachment. Acetyl(2-naphthyl) = O=C(Cc1ccc2ccccc2c1)*; 1Nal = N[C@@H](Cc1cccc2ccccc12)C(=O)O; 2Nal = N[C@@H](Cc1ccc2ccccc2c1)C(=O)O; Desaminotyrosyl = O=C(CCc1ccc(O)cc1)*; Hydrocinnamoyl = O=C(CCc1ccccc1)*; Igl = N[C@H](C(=O)O)C1Cc2ccccc2C1; aThr = C[C@H](O)[C@H](N)C(=O)O; Nle = CCCC[C@H](N)C(=O)O; Ac5c = NC1(C(=O)O)CCCC1

What was measured:
MC1-R = target: T1, MC1-R (Mus musculus, UniProt Q01727); test: Competitive binding assay: inhibition of 125I-NDP-α-MSH binding to membranes from B16-F10 mouse melanoma cells; conditions: Table 6; 1 μM; mean of triplicate
T1 construct: MC1-R membranes were isolated from B16—F10 mouse melanoma cells; endogenous in cells; host or cells: B16-F10 mouse melanoma cells
Procedure, shortened: (§1)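 Percent inhibition of 125I-NDP-α-MSH binding, from cpm normalized to 100% specific binding (total minus binding with 1 μM α-MSH). Test compounds were Re-complexed metallopeptides at a chosen concentration; triplicate means for the added peptides.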

MC4-R = target: T2, MC4-R (Homo sapiens, UniProt P32245); test: Competitive binding assay: inhibition of 125I-NDP-α-MSH binding to HEK-293 membranes with cloned human receptor subtype 4; conditions: Table 6; 1 μM; mean of triplicate
T2 construct: expressed in transfected cells; host or cells: HEK-293
Procedure, shortened: as §1

hMC5-R = target: T3, hMC5-R (Homo sapiens, UniProt P33032); test: Competitive binding assay: inhibition of 125I-NDP-α-MSH binding to HEK-293 membranes with cloned human receptor subtype 5; conditions: Table 6; 1 μM; mean of triplicate
T3 construct: expressed in transfected cells; host or cells: HEK-293
Procedure, shortened: as §1

hMC2-R = target: T4, hMC2-R (Homo sapiens, UniProt P41968); test: Competitive binding assay of additional compounds, Table 6 hMC2-R; conditions: 1 μM, mean of triplicate
T4 construct: expressed in transfected cells; host or cells: HEK-293
T4 sequence (P41968 whole entry): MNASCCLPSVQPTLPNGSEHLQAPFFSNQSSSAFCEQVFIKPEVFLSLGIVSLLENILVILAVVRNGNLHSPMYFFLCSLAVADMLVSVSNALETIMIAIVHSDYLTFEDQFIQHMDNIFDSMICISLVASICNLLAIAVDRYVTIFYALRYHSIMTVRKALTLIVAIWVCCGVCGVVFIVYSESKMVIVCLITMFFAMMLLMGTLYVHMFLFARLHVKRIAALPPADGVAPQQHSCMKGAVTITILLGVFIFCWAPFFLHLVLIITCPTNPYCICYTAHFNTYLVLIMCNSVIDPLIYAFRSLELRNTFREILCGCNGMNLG

T2 sequence (P32245 whole entry): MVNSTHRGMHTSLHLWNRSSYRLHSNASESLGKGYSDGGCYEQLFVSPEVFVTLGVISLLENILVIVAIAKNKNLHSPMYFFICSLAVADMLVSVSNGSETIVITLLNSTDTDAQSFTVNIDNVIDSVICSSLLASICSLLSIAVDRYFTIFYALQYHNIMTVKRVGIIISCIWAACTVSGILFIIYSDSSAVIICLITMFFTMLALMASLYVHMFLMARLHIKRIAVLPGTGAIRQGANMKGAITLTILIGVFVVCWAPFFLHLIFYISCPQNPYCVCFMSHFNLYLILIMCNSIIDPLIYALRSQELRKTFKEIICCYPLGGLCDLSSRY
T1 sequence (Q01727 whole entry): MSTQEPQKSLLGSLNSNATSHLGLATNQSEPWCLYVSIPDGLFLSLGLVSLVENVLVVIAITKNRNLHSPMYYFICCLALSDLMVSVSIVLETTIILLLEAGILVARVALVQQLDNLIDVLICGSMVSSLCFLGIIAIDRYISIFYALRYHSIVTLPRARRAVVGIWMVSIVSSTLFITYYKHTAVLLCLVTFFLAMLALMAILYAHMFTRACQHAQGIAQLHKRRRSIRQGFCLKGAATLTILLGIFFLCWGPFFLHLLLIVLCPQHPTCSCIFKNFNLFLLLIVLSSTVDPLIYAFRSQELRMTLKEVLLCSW
T3 sequence (P33032 whole entry): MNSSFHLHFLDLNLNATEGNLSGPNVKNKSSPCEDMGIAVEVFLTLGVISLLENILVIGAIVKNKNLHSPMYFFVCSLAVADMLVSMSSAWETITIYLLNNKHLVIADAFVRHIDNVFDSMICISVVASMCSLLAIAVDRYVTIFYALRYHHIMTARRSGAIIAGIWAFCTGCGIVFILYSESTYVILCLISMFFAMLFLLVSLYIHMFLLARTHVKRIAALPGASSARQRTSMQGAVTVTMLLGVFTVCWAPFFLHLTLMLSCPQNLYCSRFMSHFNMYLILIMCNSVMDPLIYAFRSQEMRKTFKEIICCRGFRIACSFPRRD

Row | Substance | % Inhibition of Binding MC1-R (MC1-R) | % Inhibition of Binding hMC4-R (MC4-R) | % Inhibition of Binding hMC5-R (hMC5-R) | % Inhibition of Binding hMC2-R (hMC2-R)
1 | Ac-Nle-Ala-Glu-D-Phe-Arg-Cys-Trp-NH2 (Ac-[Nle]AE[dF]RCW-NH2; not fully specified; printed as Ac-Nle-Ala-Glu-D-Phe-Arg-Cys-Trp-NH2) | 0% | 12% | 0% | 3%
2 | Ser(Bzl)-D-Nal 2′-Arg-Nal 2′-Cys-NH2 | 18% | 71% | 91% | 23%
3 | Ac-Leu-His-D-Phe-Arg-Cys-Trp-NH2 ({Ac-Leu-H2N}-[dF]RCW-NH2; not fully specified; printed as Ac-Leu-His-D-Phe-Arg-Cys-Trp-NH2) | 75% | 0% | 31% | 0%
4 | 3′-Br Phenyl acetyl-Arg-Arg-D-Phe(4′-Cl)-Cys-Nal 1′-NH2 | 90% | 84% | 89% | 85%
5 | 1-amino-1-cyclopentane carboxyl-D-Phe-Arg-Trp-Cys-NH2 ([Ac5c][dF]RWC-NH2; N-terminus assumed; SMILES N=C(N)NCCC[C@H](NC(=O)[C@@H](Cc1ccccc1)NC(=O)C1(N)CCCC1)C(=O)N[C@@H](Cc1c[nH]c2ccccc12)C(=O)N[C@@H](CS)C(N)=O) | 23% | 0% | 14% | 7%
6 | Ac-[Nle]AW[dF]RCW-NH2 | 45% | 9% | 62% | 0%
7 | NH2-(CH2)6-CO-Ser(Bzl)-D-Nal 2′-Arg-Nal 2′-Cys-NH2 | 22% | 95% | 100% | 70%
8 | 3′-Phenylpropionyl-D-Phe-Arg-Cys-Trp-NH2 (Hydrocinnamoyl-[dF]RCW-NH2; not fully specified; printed as 3′-Phenylpropionyl-D-Phe-Arg-Cys-Trp-NH2) | 3% | 0% | 44% | 0%
9 | Ac-Nle-Ala-His-D-Phe-Arg-His-Cys-NH2 ({Ac-Nle-Ala-H2N}-[dF]RHC-NH2; not fully specified; printed as Ac-Nle-Ala-His-D-Phe-Arg-His-Cys-NH2) | 58% | 1% | 0% | 0%
10 | Naphthlyl-2-acetyl-D-Phe-Arg-Cys-Trp-NH2 ({Acetyl(2-naphthyl)}-[dF]RCW-NH2; also: metal complex) | 7% | 0% | 56% | 0%
11 | D-Nal 1′-D-Phe-Arg-Trp-Cys-NH2 | 3% | 13% | 43% | 0%
12 | 3′-Br Phenyl acetyl-Arg-Arg-D-Phe(4′-Cl)-Cys-Bip-NH2 | 69% | 78% | 86% | 60%
13 | 3′-Bromo phenyl acetyl-Lys-Ala-D-Phe(3′-Cl)-Cys-Trp-NH2 | 4% | 38% | 60% | 13%
14 | Hept-Ser(Bzl)-D-Phe(4′-Cl)-Arg-D-Trp-Cys-NH2 | 24% | 62% | 79% | 37%
15 | Nal 1′-D-Phe-Arg-Trp-Cys-NH2 ([1Nal][dF]RWC-NH2; also: metal complex) | 11% | 15% | 68% | 3%
16 | 7-amino-haptanoyl-Ser(Bzl)-D-Nal 2′-Arg-Cys-NH2 | 3% | 6% | 34% | 0%
17 | Ac-Ala-His-D-Phe-Arg-Cys-Trp-NH2 ({Ac-Ala-H2N}-[dF]RCW-NH2; not fully specified; printed as Ac-Ala-His-D-Phe-Arg-Cys-Trp-NH2) | 61% | 0% | 9% | 0%
18 | Ac-Nle-Ala-His-D-Phe-Arg-Nal 2′-Cys-NH2 | 99% | 89% | 83% | 40%
19 | 3′-(4′-Hydroxyphenyl)propionyl-D-Phe-Arg-Cys-Trp-NH2 (Desaminotyrosyl-[dF]RCW-NH2; not fully specified; printed as 3′-(4′-Hydroxyphenyl)propionyl-D-Phe-Arg-Cys-Trp-NH2) | 7% | 0% | 14% | 0%

Continued, values first:

Row | % Inhibition of Binding MC1-R (MC1-R) | % Inhibition of Binding hMC4-R (MC4-R) | % Inhibition of Binding hMC5-R (hMC5-R) | % Inhibition of Binding hMC2-R (hMC2-R) | Substance
20 | 66% | 0% | 31% | 5% | allo-Thr-D-Phe-Arg-Cys-Trp-NH2 ([aThr][dF]RCW-NH2; also: metal complex)
21 | 16% | 6% | 84% | 0% | Tic-D-Phe(4′-Cl)-Lys-Cys-NH2
22 | 0% | 12% | 45% | 6% | Nal 1′-D-Phe-Arg-Cys-Trp-NH2 ([1Nal][dF]RCW-NH2; also: metal complex)
23 | 9% | 34% | 44% | 19% | 3′-Br Phenyl acetyl-Lys-Ala-D-Phe(2′-Cl)-Cys-Trp-NH2
24 | 78% | 16% | 60% | 0% | 1-amino-1-cyclopentane carboxyl-D-Phe-Arg-Cys-Trp-NH2 ([Ac5c][dF]RCW-NH2; N-terminus assumed; SMILES N=C(N)NCCC[C@H](NC(=O)[C@@H](Cc1ccccc1)NC(=O)C1(N)CCCC1)C(=O)N[C@@H](CS)C(=O)N[C@@H](Cc1c[nH]c2ccccc12)C(N)=O)
25 | 75% | 16% | 50% | 2% | 3′-Phenylpropionyl-His-D-Phe-Arg-Cys-Trp-NH2 (Hydrocinnamoyl-H[dF]RCW-NH2; not fully specified; printed as 3′-Phenylpropionyl-His-D-Phe-Arg-Cys-Trp-NH2)
26 | 77% | 2% | 28% | 0% | Ac-[Nle]H[dF]RCW-NH2
27 | 1% | 18% | 35% | 0% | [dP][dF]RWC-NH2
28 | 58% | 16% | 71% | 0% | Ac-[Nle]AF[dF]RCW-NH2
29 | 8% | 20% | 62% | 0% | Nal 2′-D-Phe-Arg-Trp-Cys-NH2 ([2Nal][dF]RWC-NH2; also: metal complex)
30 | 27% | 97% | 85% | 73% | D-Igl-D-Nal 2′-Arg-Trp-Cys-NH2
31 | 4% and 10% | 96% and 74% | 83% | 77% | 3′-Br Phenyl acetyl-Lys-Ala-D-Phe(4′-CF3)-Cys-Trp-NH2
32 | 27% | 2% | 33% | 0% | Pro-D-Phe-Arg-Cys-Trp-NH2 (P[dF]RCW-NH2; also: metal complex)
33 | 100% | 90% | 54% | 0% | Ac-Nle-Ala-His-D-Phe-Arg-D-Nal 2′-Cys-NH2
34 | 38% and 36% | 14% and 20% | 67% and 64% | 7% and 0% | [Igl][dF]RCW-NH2
35 | 27% | 28% | 69% | 0% | Ser(Bzl)-D-Phe-Arg-Trp-Cys-NH2 ({Ser(Bzl)}-[dF]RWC-NH2; also: metal complex)
36 | 2% | 0% | 13% | 3% | Tic-D-Phe(4′-Cl)-Gln-Cys-NH2
37 | 0% | 73% | 80% | 19% | 3′-Bromo phenyl acetyl-Lys-Ala-D-Phe(4′-Me)-Cys-Trp-NH2
